{
  "source": "patent US20180217129A1",
  "about": "“A Method Of Assessing Protein Modification Status And Identifying Biomarkers Linked To Cell Signaling Pathways” (Queen Mary University of London, priority 2015, published 2018)",
  "key": {"[1]": {"tested_on": "off-target kinases (MRC database)", "conditions": "cited from earlier work"}, "off-targets (ChEMBL)": {"tested_on": "off-targets (ChEMBL)", "conditions": "cited from earlier work"}, "[2]": {"tested_on": "MCF7-G and MCF7-K resistant cells", "assay": "Cell proliferation assay (cell counting), resistant cells", "assay_type": "cell-based, human", "conditions": "resistant cell-lines (MCF7-G for GDC-0941, MCF7-K for KU-0063794), 1 μM of inhibitor", "procedure": "MCF7 cells (identity confirmed by genotyping analysis) were routinely maintained in DMEM (supplemented with 10% fetal-bovine serum and 100 U·mL^−1 penicillin/streptomycin) at 37° C. in a humidified atmosphere at 5% CO2. Resistant MCF7 cell-lines, derived from the original parental cells, were obtained by gradually increasing the concentrations of GDC-0941 or KU-0063794 concentrations (starting at 100 nM up to a maximum of 1 μM) over a period of approximately six months. The resultant clones (MCF7-G1:G3 and MCF7-K1:K3) were then routinely maintained as above in the presence of either 1 μM GDC-0941 or KU-0063794 (in DMSO) for MCF7-G and MCF7-K cells, respectively.\n(§1) Parental MCF7, G1:3 and K1:3 cell-lines were seeded in 12-well plates at a density of approximately 80,000 cells·well^−1, in biological triplicate. After the indicated time period, cells were washed with PBS, trypsinized and counted using a Beckman Coulter Vi-CELL XR cell counter. Second-order polynomials where fitted to the data using the ggplot2 package (v0.9.3.1) within R (v3.0.0)."}, "parental MCF7 cells": {"tested_on": "parental MCF7 cells", "assay": "Cell proliferation assay (cell counting), parental cells", "assay_type": "cell-based, human", "conditions": "1 μM of inhibitor", "procedure": "as §1"}, "MCF7 cells": {"tested_on": "MCF7 cells", "assay": "Growth factor stimulation phosphoproteomics (CTAM group dynamics, KSEA)", "assay_type": "cell-based, human", "conditions": "stimulation for 5 min, relative to 0 minute control", "procedure": "Cells were split and seeded at 4×10^5 cells·plate^−1, 72 hours prior to the experiment. The medium in each plate was replaced 24 hours prior to the experiment. Each experiment was performed in biological duplicate. For the network definition experiments, cells were treated with each of the inhibitors or vehicle (DMSO) for 1 hour (Table 1). For the growth factor stimulation experiments, cells were starved for 24h and were subsequently treated with either 50 ng·mL^−1 EGF or IGF for 0, 5, 10, 30, or 60 minutes. For the resistant cell-line experiments, no additional treatments were performed. […]\nThe abundance of each of the identified markers was monitored systematically using KSEA (kinase-substrate enrichment analysis), as described previously (1). […] The mean of the log2 fold-ratios (versus control) of the phosphorylation sites representing each CTAM group were then calculated alongside the standard deviation (δ) for each mean. The significance of enrichment was then determined using a Z-score based approach and expressed as P-values, using the following formula: Z=(Sm−μt)·m^1/2/δt; where Sm=mean of the CTAM group log2 fold-ratios; μt=mean of the total dataset log2 ratios; m=number of individual phosphopeptides within the CTAM group; and δt=standard deviation of the total dataset log2 ratios (vs control) (19). […]"}},
  "note": "Read-outs that look alike come from different tables or passages of the source.",
  "data": [
    {"molecule": "O=c1[nH]c2ccccc2n1C1CCN(Cc2ccc(-c3nc4cc5[nH]cnc5cc4nc3-c3ccccc3)cc2)CC1", "note": "[Akt inhibitor VIII]", "values": [
      {"measurement": "Off-targets from MRC database (>50% inhibition at given concentration)", "setting": "[1]; 1 μM", "value": "CAMK1 (1 μM)"}
    ]},
    {"molecule": "CN(C)CCCn1cc(C2=C(c3c[nH]c4ccccc34)C(=O)NC2=O)c2ccccc21", "note": "[Bisindolylmaleimide-I]", "values": [
      {"measurement": "Off-targets from ChEMBL", "setting": "off-targets (ChEMBL)", "value": "CDK4/CCND1, and GSK3β, and PIM1"}
    ]},
    {"molecule": "Nc1[nH]nc2nnc(-c3c(-c4ccccc4)nn4ccccc34)cc12", "note": "[ERK inhibitor II]", "values": [
      {"measurement": "Off-targets from ChEMBL", "setting": "off-targets (ChEMBL)", "value": "MAPK14"}
    ]},
    {"molecule": "CS(=O)(=O)N1CCN(Cc2cc3nc(-c4cccc5[nH]ncc45)nc(N4CCOCC4)c3s2)CC1", "note": "[GDC-0941]", "values": [
      {"measurement": "Off-targets from MRC database (>50% inhibition at given concentration)", "setting": "[1]; 1 μM", "value": "CLK2 (1 μM)"},
      {"measurement": "proliferation in the presence of inhibitor", "setting": "[2]", "value": "able to proliferate"},
      {"measurement": "proliferation in the presence of inhibitor", "setting": "parental MCF7 cells", "value": "unable to do so"}
    ]},
    {"molecule": "Cn1c2ccccc2c2c3c(c4c5ccccc5n(CCC#N)c4c21)CNC3=O", "note": "[Go-6976]", "values": [
      {"measurement": "Off-targets from ChEMBL", "setting": "off-targets (ChEMBL)", "value": "PKD1"}
    ]},
    {"molecule": "Cc1cncc2cccc(S(=O)(=O)N3CCCNC[C@@H]3C)c12", "note": "[H-1152]", "values": [
      {"measurement": "Off-targets from ChEMBL", "setting": "off-targets (ChEMBL)", "value": "PKA"}
    ]},
    {"molecule": "CN([C@@H](Cc1ccc(OS(=O)(=O)c2cccc3cnccc23)cc1)C(=O)N1CCN(c2ccccc2)CC1)S(=O)(=O)c1cccc2cnccc12", "note": "[KN-62, 1-N,O-bis(5-isoquinolinesulfonyl)-N-methyl-L-tyrosyl-4-phenylpiperazin E]", "values": [
      {"measurement": "Off-targets from MRC database (>50% inhibition at given concentration)", "setting": "[1]; 10 μM", "value": "PRAK and CAMK1 and DYRK1A and Lck"},
      {"measurement": "Off-targets from ChEMBL", "setting": "off-targets (ChEMBL)", "value": "P2RX7"}
    ]},
    {"molecule": "COc1ccc(S(=O)(=O)N(CCO)c2ccccc2CN(C)C/C=C/c2ccc(Cl)cc2)cc1", "note": "[KN-93]", "values": [
      {"measurement": "Off-targets from MRC database (>50% inhibition at given concentration)", "setting": "[1]; 10 μM", "value": "TrkA and smMLCK"}
    ]},
    {"molecule": "COc1ccc(-c2ccc3c(N4CCOCC4)nc(N4C[C@@H](C)O[C@@H](C)C4)nc3n2)cc1CO", "note": "[KU-0063794]", "values": [
      {"measurement": "proliferation in the presence of inhibitor", "setting": "[2]", "value": "able to proliferate"},
      {"measurement": "proliferation in the presence of inhibitor", "setting": "parental MCF7 cells", "value": "unable to do so"}
    ]},
    {"molecule": "C=CC(=O)Nc1ccc2ncnc(Nc3cccc(Br)c3)c2c1", "note": "[PD-168393]", "values": [
      {"measurement": "Off-targets from ChEMBL", "setting": "off-targets (ChEMBL)", "value": "ERBB2/4, and BMX and BTK and BLK and JAK3"}
    ]},
    {"molecule": "CCc1cncnc1N1CCN(Cc2nc3ccc(C(F)(F)F)cc3[nH]2)CC1", "note": "[PF-4708671]", "values": [
      {"measurement": "Off-targets from MRC database (>50% inhibition at given concentration)", "setting": "[1]; 1 μM", "value": "MSK1 and RSK1"}
    ]},
    {"molecule": "Oc1cccc(-c2nc(N3CCOCC3)c3oc4ncccc4c3n2)c1", "note": "[PI-103]", "values": [
      {"measurement": "Off-targets from ChEMBL", "setting": "off-targets (ChEMBL)", "value": "mTOR, and DNA-PK, and Akt1"}
    ]},
    {"molecule": "N#CC(=C(/N)Sc1ccccc1N)/C(C#N)=C(\\N)Sc1ccccc1N", "note": "[U0126]", "values": [
      {"measurement": "Off-targets from MRC database (>50% inhibition at given concentration)", "setting": "[1]; 10 μM", "value": "MKK1 (10 μM)"}
    ]},
    {"molecule": "C[C@@H](N)[C@H]1CC[C@H](C(=O)Nc2ccncc2)CC1", "note": "[Y-27632]", "values": [
      {"measurement": "Off-targets from MRC database (>50% inhibition at given concentration)", "setting": "[1]; 1 μM", "value": "PHK and MST2 and RSK2 and MSK1 and MNK1 and RSK1 and AMPK and PRK2"},
      {"measurement": "Off-targets from ChEMBL", "setting": "off-targets (ChEMBL)", "value": "PKCε"}
    ]},
    {"molecule": "IGF-1: Human recombinant IGF-1 (100-11) purchased from Peprotech", "values": [
      {"measurement": "EGFR-MEK CTAM group phosphorylation", "setting": "MCF7 cells", "value": "significant, acute up-regulation"}
    ]}
  ]
}
